Reference: paper PMC9283466, “In silico identification of two peptides with antibacterial activity against multidrug-resistant Staphylococcus aureus” (NPJ Biofilms and Microbiomes, 2022)
Values after ≈ are worked out from the molar mass of the structure shown. Bridge positions count the residues as written; N and C are the ends. Peptide text beside a SMILES is read from it.

Key:
K. pneumoniae 518842 = assay: microbe, parasite or virus in culture; type: cell-based, Klebsiella pneumoniae; conditions: 518842
Description: (§1) To determine the antimicrobial activity of the new antimicrobial peptides, HG2 and HG4, their minimum inhibitory concentrations (MICs) were determined by broth microdilution method[51] in cation adjusted Mueller Hinton broth (MHB) following the International Organisation for Standardisation (ISO) 20776-1 standard for MIC testing using a final bacterial inoculum of 5 × 10^5 CFU/ml[52]. […] The peptides dissolved in sterile distilled water were added to bacteria culture and incubated overnight at appropriate conditions. The MICs of the peptides and comparator antibiotics were recorded after 18–24 h. The minimum bactericidal concentrations (MBCs) were also determined and were taken as the lowest concentration of the antimicrobial that prevented the growth of bacterial cells after the subculture of cells (from MIC treatment) onto antibiotic-free media.

K. pneumoniae 526903 = assay: microbe, parasite or virus in culture; type: cell-based, Klebsiella pneumoniae; conditions: 526903
Description: as §1

[1] = system: K. pneumoniae ATCC 700603; assay: microbe, parasite or virus in culture; type: cell-based, Klebsiella pneumoniae; conditions: ATCC 700603
Description: as §1

K. pneumoniae NCTC 13442 = assay: microbe, parasite or virus in culture; type: cell-based, Klebsiella pneumoniae; conditions: NCTC 13442
Description: as §1

[2] = system: S. aureus MRSA USA300 cells; assay: Transcriptomic analysis (RNA-Seq, DESeq2); type: cell-based, Staphylococcus aureus; conditions: MIC concentration for 60 min; p <0.05, abs(log2FC)> 2
Description: The mechanism of action and effects of HG2 and HG4 against S. aureus MRSA USA300 was investigated using transcriptomics analysis[57],[58]. […] The increased sample volume and limited treatment time of 60 min served to maintain the quality and yield of RNA. Untreated cells served as control. Cells were washed and resuspended in PBS and then RNAprotect Bacteria Reagent (QIAGEN, Hilden, Germany) was added and pelleted. This was followed by incubation in Tris-EDTA buffer containing Proteinase K and Bacterial Lysis Mix (Mutanolysin and Lysozyme) at room temperature for 10 min addition. Thereafter, RNA extraction was performed using the Qiagen RNeasy Plus Mini Kit following the manufacturer’s protocol (Qiagen, Manchester, UK). RNA was quantified using a Qubit™ fluorometer with a broad range RNA kit (Invitrogen, USA), according to the manufacturer’s instructions. All experiments were carried out in triplicates. […]
Analysis of sequencing data was carried out using the Geneious Prime® (2021.1.1) software (Biomatters Ltd, New Zealand)[59]. Firstly, all raw paired-end fastq reads passing quality check by FastQC v0.11.9 were mapped to the reference genome (Staphylococcus aureus subsp. aureus USA300_TCH1516 downloaded from the NCBI website), using Geneious RNA-Seq mapper. […]

| SMILES | MIC (K. pneumoniae 518842) | MIC (K. pneumoniae 526903) | MIC [1] | MIC (K. pneumoniae NCTC 13442) | number of differentially expressed genes (DEGs) [2] |
| --- | --- | --- | --- | --- | --- |
| CC[C@H](C)[C@H](NC(=O)[C@H](CC(C)C)NC(=O)[C@H](CC(C)C)NC(=O)[C@H](CC(C)C)NC(=O)[C@H](CCCCN)NC(=O)[C@H](CCCCN)NC(=O)[C@@H](N)CCSC)C(=O)N[C@@H](CC(C)C)C(=O)N[C@@H](Cc1ccccc1)C(=O)N[C@H]1CSSC[C@@H](C(=O)N[C@@H](CCCCN)C(=O)N[C@@H](CCCCN)C(=O)N[C@@H](C)C(=O)N2CCC[C@H]2C(N)=O)NC(=O)CNC(=O)[C@H](C)NC(=O)[C@H](CC(C)C)NC(=O)[C@H](C)NC(=O)[C@H](CC(C)C)NC(=O)[C@H](C)NC(=O)[C@H](CC(C)C)NC1=O [HG2] (H-MKKLLLILFCLALALAGCKKAP-NH2; disulfide 10-18; N-terminus assumed) | 512 µg/mL (≈ 217 µM) | >512 µg/mL | >512 µg/mL | 512 µg/mL (≈ 217 µM) | 114 |
| CC[C@H](C)[C@H](NC(=O)[C@H](CC(C)C)NC(=O)[C@H](CC(C)C)NC(=O)[C@H](C)NC(=O)CNC(=O)CNC(=O)[C@@H](NC(=O)[C@@H](NC(=O)[C@H](CC(C)C)NC(=O)[C@H](C)NC(=O)[C@H](CC(C)C)NC(=O)CNC(=O)[C@H](CC(C)C)NC(=O)[C@@H](N)C(C)C)[C@@H](C)CC)C(C)C)C(=O)N[C@@H](CCCCN)C(=O)N[C@@H](CCCCN)C(=O)N[C@@H](CCCCN)C(=O)N[C@@H](CCC(N)=O)C(=O)N[C@@H](C)C(=O)N[C@@H](CCCCN)C(=O)N[C@@H](CO)C(N)=O [HG4] (H-VLGLALIVGGALLIKKKQAKS-NH2; N-terminus and C-terminus assumed) | 512 µg/mL (≈ 242 µM) | 512 µg/mL (≈ 242 µM) | >512 µg/mL | 512 µg/mL (≈ 242 µM) | 123 |
